Results from patent US20250136568A1, “FUSED HETEROCYCLIC COMPOUNDS AS PI3KALPHA INHIBITORS” (Nanjing Zenshine Pharmaceuticals Co., Ltd., priority 2021, published 2025).
Read-outs that look alike come from different tables or passages of the source.

Columns and labels:
[1] = tested on: PI3Kα H1047R mutation cell line T-47D; assay: Cell Proliferation IC50 Assay (CellTiter-Glo), T-47D; assay type: cell-based; conditions: T47D (H1047R), 72 hours, CellTiter-Glo, read-out: IC50 (μM) T47D
Method in brief: (§1)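 Cells were seeded and left overnight, then exposed to serially diluted compound (200-fold final dilution) for 72 h at 37 °C, 5% CO2. Viability was read by CellTiter-Glo luminescence. Percent inhibition and IC50 were calculated from the signal.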

PI3Kβ = target: T1, PI3Kβ (Homo sapiens, UniProt P42338); assay: Selectivity study, p-AKT (Ser473) HTRF assay in 786-O cells; assay type: cell-based; conditions: 786-O cell, 1 hour incubation, serum-free medium
T1 construct: endogenous in cells; host or cells: 786-O
Experimental: The following day, the complete medium was replaced with serum-free medium, 3-fold serial diluted compound solution in serum-free medium was added to each well according to the plate map. After 1 hour incubation, removed cell supernatant carefully and added supplemented lysis buffer (1×) for 45 min. The lysate was transferred to a 384-well small volume white plate, the CisBio Phospho-AKT (Ser473) HTRF assay was performed as the manufacturer's directions (Cisbio, #64AKSPEG).

PI3Kα H1047R mutant = PI3Kα H1047R mutant (Homo sapiens, UniProt P42336, H1047R); assay: pAKT (S473) ELISA assay in PI3Kα H1047R mutant cell line (T47D); assay type: cell-based; conditions: T47D cells, two hours compound, IGF-1 50 ng/ml stimulation
Experimental: (§2) Cells were serum starved for 4 hours prior to compound treatment; compound solution was added to each well (3-fold serial dilution starting at desired concentration) for two hours in serum-free medium, followed by stimulation with IGF-1 for 60 minutes at a final concentration of 50 ng/ml as noted. After compound treatment and stimulation, discarded the supernatant and cells were lysed by cell lysis buffer (Cell Signaling Technology, #9803S). The lysate was transferred to the ELISA plate, the Phospho-AKT (Ser473) ELISA was performed as the manufacturer's directions (Cell Signaling Technology, #7160CA).

[2] = In vivo pharmacokinetics in mice; conditions: for clearance / bioavailability: male, CD1, mouse, plasma; for clearance: intravenous, 1 mg/kg; for bioavailability: oral, 5 mg/kg
Experimental: (§3) Dosing solutions were prepared at 0.5 mg/mL in 10% DMSO/10% HP—3-CD/80% water. A dosing solution was administered to Male CD1 mice (4-6 weeks, 20-30 g, 3 mice each group) via intravenous (TV) bolus at 1 mg/kg and by oral gavage (PO) at 5 mg/kg. The dose formulations were kept at room temperature and administrated within 30 mins for IV/PO. Blood samples (0.3 mL each time point) were collected into tubes containing ethylenediaminetetraacetic acid (K2EDTA) as the anticoagulant at 0, 0033, 0.083, 0.25, 05, 1, 2, 4, 8 and 24 hours post dose for IV administrated and 0, 0.083, 0.25, 0.5, 1, 2, 4, 8 and 24 hours post dose for PO administration. The blood sample were then centrifuged for 5 minutes in centrifuge refrigerated at 4° C. The samples were stored in a freezer at −75±15° C. prior to analysis. Concentrations of Compound in the plasma samples were analyzed using a LC-MS/MS method. WinNonlin (Phoenix™, version 8.3) or other similar software were used for pharmacokinetic calculations. The following pharmacokinetic parameters were calculated, whenever possible from the plasma concentration versus time data: MRT, Cmax, Tmax, AUClast, AUCinf, F %, Number of Points for Regression.

PI3Kα WT = PI3Kα WT (Homo sapiens, UniProt P42336); assay: pAKT (S473) ELISA assay in WT cell line (SK-BR-3); assay type: cell-based; conditions: SK-BR-3 cells, two hours compound, IGF-1 50 ng/ml stimulation
Experimental: as §2

[3] = tested on: PI3Kα wide type cell line SK-BR-3; assay: Cell Proliferation IC50 Assay (CellTiter-Glo), SK-BR-3; assay type: cell-based; conditions: SK-BR-3 (PI3Kα wild type), 72 hours, CellTiter-Glo, read-out: IC50 (μM) SK-BR-3
Method in brief: as §1

[4] = tested on: PI3Kα H1047R mutation cell line MDA-MB-453; assay: Cell Proliferation IC50 Assay (CellTiter-Glo), MDA-MB-453; assay type: cell-based; conditions: MDA-MB-453 (H1047R), 72 hours, CellTiter-Glo, read-out: IC50 (μM) MDA-MB-453
Method in brief: as §1

in vivo = conditions: male, CD1, mouse
Experimental: as §3

[5] = CD1 mice, IV bolus at 1 mg/kg and PO at 5 mg/kg

Chain of PI3Kα H1047R mutant (P42336 whole entry H1047R): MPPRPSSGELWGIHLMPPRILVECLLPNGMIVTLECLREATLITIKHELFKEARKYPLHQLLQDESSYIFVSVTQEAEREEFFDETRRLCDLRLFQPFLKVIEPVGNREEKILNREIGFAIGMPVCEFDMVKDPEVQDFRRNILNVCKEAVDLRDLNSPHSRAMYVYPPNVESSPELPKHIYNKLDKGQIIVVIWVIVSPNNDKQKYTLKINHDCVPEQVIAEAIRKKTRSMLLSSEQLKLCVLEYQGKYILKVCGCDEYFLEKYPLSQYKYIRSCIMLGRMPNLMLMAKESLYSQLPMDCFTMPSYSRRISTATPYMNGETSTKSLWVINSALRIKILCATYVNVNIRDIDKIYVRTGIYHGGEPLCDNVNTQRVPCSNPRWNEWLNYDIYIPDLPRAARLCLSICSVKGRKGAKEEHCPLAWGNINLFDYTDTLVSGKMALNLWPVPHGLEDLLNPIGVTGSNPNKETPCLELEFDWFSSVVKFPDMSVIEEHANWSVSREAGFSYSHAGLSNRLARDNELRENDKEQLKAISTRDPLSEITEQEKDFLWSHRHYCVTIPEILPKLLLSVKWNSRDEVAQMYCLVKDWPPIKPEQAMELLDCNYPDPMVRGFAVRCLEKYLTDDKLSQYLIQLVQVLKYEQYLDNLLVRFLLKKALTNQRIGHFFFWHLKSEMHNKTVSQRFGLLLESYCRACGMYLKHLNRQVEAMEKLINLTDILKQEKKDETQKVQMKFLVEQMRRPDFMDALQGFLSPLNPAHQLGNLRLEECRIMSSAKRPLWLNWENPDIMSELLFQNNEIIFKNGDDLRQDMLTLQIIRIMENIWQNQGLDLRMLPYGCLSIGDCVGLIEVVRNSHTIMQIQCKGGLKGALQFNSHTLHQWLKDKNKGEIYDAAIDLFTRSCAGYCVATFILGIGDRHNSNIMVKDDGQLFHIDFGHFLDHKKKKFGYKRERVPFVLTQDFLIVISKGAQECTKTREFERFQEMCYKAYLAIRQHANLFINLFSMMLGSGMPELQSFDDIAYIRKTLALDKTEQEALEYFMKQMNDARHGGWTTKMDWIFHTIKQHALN
Chain of PI3Kα H1047R mutant (P27986 whole entry partner): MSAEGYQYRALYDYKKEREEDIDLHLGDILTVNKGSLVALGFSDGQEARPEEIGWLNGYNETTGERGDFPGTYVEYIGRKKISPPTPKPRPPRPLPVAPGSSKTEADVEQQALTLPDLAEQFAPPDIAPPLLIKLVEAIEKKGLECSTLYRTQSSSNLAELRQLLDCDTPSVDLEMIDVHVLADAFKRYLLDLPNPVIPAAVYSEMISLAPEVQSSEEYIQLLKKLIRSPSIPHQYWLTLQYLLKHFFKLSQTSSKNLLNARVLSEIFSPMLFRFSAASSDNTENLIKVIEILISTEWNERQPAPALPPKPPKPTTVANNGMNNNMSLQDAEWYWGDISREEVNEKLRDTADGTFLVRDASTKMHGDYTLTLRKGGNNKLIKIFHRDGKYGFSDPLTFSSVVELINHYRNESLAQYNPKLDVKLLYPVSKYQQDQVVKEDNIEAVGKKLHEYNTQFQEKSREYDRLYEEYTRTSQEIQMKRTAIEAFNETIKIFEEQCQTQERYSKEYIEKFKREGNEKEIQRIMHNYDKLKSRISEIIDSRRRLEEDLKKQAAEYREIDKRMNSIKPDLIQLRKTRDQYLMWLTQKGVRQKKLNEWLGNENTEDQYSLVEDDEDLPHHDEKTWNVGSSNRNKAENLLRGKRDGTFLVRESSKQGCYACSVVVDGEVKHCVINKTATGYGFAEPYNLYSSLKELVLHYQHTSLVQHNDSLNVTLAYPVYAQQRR
T1 sequence (P42338 whole entry): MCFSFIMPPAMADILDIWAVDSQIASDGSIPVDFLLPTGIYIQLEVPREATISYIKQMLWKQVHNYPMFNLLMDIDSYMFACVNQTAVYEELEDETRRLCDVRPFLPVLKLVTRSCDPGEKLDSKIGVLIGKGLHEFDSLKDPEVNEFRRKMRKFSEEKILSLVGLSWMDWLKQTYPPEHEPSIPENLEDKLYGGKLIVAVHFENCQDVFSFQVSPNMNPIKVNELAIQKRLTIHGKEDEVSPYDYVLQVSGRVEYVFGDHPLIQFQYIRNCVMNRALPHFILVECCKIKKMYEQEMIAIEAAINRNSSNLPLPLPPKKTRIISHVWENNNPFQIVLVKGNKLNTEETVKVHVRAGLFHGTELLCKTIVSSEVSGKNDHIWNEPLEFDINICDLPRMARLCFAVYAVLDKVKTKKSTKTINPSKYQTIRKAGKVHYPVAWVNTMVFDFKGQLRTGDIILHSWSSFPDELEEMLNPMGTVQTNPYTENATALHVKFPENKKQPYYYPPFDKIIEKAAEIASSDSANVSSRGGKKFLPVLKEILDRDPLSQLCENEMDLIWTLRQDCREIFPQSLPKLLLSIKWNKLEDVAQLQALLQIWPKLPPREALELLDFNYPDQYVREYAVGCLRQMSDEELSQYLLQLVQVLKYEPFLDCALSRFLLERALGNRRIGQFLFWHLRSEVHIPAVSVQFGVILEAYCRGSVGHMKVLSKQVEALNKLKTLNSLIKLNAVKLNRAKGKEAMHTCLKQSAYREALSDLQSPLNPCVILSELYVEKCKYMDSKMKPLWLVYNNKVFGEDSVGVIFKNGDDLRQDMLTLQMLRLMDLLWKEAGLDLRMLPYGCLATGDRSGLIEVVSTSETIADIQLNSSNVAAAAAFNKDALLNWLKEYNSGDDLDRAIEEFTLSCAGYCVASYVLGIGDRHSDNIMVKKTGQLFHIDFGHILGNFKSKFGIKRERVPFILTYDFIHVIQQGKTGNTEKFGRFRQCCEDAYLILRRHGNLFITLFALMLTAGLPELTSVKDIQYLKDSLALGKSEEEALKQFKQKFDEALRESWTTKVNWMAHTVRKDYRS
T1 sequence (P27986 whole entry partner): as the sequence (P27986 whole entry partner) above
Chain of PI3Kα WT (P42336 whole entry): as the sequence (P42336 whole entry H1047R) above, with R1047H counted along it
Chain of PI3Kα WT (P27986 whole entry partner): as the sequence (P27986 whole entry partner) above

Row | IC50 ([1]; Homo sapiens, T47D, 72 h) [µM] | IC50 (PI3Kβ) [nM] | IC50 (PI3Kα H1047R mutant) [nM] | IC50 (PI3Kα WT) [nM] | IC50 ([3]; Homo sapiens) [µM] | IC50 ([4]; Homo sapiens) [µM] | Compound | further results
1 | 0.04 | 545 | 25 | 1290 | 8.5 | 0.05 | Cc1cc([C@@H](C)Nc2ccccc2C(=O)O)c2oc(-c3ccc4nn(C)cc4c3)cc(=O)c2c1 (single isomer, unassigned) [Example 38B] | clearance [2]: 34 mL/min/kg; bioavailability [2]: 45.5%
2 | 0.076 | 6460 | 37 | 1100 | 5.6 | 0.15 | CC(=O)N1CCN(c2ccc(-c3oc4c([C@@H](C)Nc5ccccc5C(=O)O)cc(C)cc4c(=O)c3C)cc2)CC1 (single isomer, unassigned) [Example 123A] | –
3 | – | 1220 | – | – | – | – | Cc1cc(C(C)Nc2ccccc2C(=O)O)c2oc(-c3ccc(-c4cnn(C)c4)cc3)cc(=O)c2c1 (centres unmarked) [Example 95, 2-((1-(6-methyl-2-(4-(1-methyl-1H-pyrazol-4-yl)phenyl)-4-oxo-4H-chromen-8-yl)ethyl)amino)benzoic acid] | –
4 | – | 1150 | – | – | – | – | CC(Nc1ccccc1C(=O)O)c1cc(Cl)cc2c(=O)cc(-c3ccc4nn(C)cc4c3)oc12 (centres unmarked) [Example 98, 2-((1-(6-chloro-2-(2-methyl-2H-indazol-5-yl)-4-oxo-4H-chromen-8-yl)ethyl)amino)benzoic] | –
5 | 0.087 | > 10000 | – | – | > 10 | – | Cc1cc(C(C)Nc2ccc(Cl)nc2C(=O)O)c2oc(-c3ccc4nn(C)cc4c3)cc(=O)c2c1 (centres unmarked) [Example 110, 6-chloro-3-((1-(6-methyl-2-(2-methyl-2-indazol-5-yl)-4-oxo-4H-chromen-8-yl)ethyl)amino)picolinic acid] | –
6 | 0.041 | > 10000 | 42.3 | 2390 | > 10 | 0.029 | Cc1cc([C@@H](C)Nc2ccccc2C(=O)O)c2oc(-c3ccc(OCCN(C)C)cc3)c(C)c(=O)c2c1 [Example 140, (R)-2-((1-(2-(4-(2-(dimethylamino)ethoxy)phenyl)-3,6-dimethyl-4-oxo-41-chromen-8-yl)ethyl)amino)benzoic acid] | –
7 | 0.066 | > 10000 | 48.5 | 4340 | > 10 | – | Cc1cc([C@@H](C)Nc2ccccc2C(=O)O)c2oc(-c3ccc(CN4CCN(C)C(=O)C4)cc3)c(C)c(=O)c2c1 [Example 148, (R)-2-((1-(3,6-dimethyl-2-(4-((4-methyl-3-oxopiperazin-1-yl)methyl)phenyl)-4-oxo-4H-chromen-8-yl)ethyl)amino)benzoic acid] | –
8 | 0.064 | > 10000 | 25 | 2370 | > 10 | 0.13 | Cc1cc([C@@H](C)Nc2ccccc2C(=O)O)c2oc(-c3ccc(-c4cnn(C)c4)nc3)c(C)c(=O)c2c1 [Example 150, (R)-2-((1-(3,6-dimethyl-2-(6-(1-methyl-H-pyrazol-4-yl)pyridin-3-yl)-4-oxo-41-chromen-8-yl)ethyl)amino)benzoic acid] | clearance [2]: 3.75 mL/min/kg; bioavailability [2]: 58.2%

Row | Compound | IC50 ([1]; Homo sapiens, T47D, 72 h) [µM] | IC50 (PI3Kβ) [nM] | IC50 (PI3Kα H1047R mutant) [nM] | IC50 (PI3Kα WT) [nM] | IC50 ([3]; Homo sapiens) [µM] | IC50 ([4]; Homo sapiens) [µM] | further results
9 | C[C@@H](Nc1ccccc1C(=O)O)c1cc(Cl)cc2c(=O)cc(-c3ccc4nn(C)cc4c3)oc12 (single isomer, unassigned) [Example 98B] | – | – | 19.5 | 1340 | – | – | IC50 [1]: > 10 µM; IC50 [3]: > 10 µM; IC50 [4]: > 10 µM
10 | Cc1cc([C@@H](C)Nc2ccccc2C(=O)O)c2oc(-c3ccc(CN4CCN(C)CC4)cc3)c(C)c(=O)c2c1 [Example 147, 2-[[(1R)-1-[3,6-dimethyl-2-[4-[(4-methylpiperazin-1-yl)methyl]phenyl]-4-oxo-chromen-8-yl]ethyl]amino]benzoic acid] | – | > 10000 | 46.5 | 6130 | > 10 | – | IC50 ([1]; Homo sapiens): 0.055 µM; bioavailability (in vivo): 46.5%; clearance (in vivo): 10.9 mL/min/kg
11 | (R)-2-((1-(6-methyl-2-(41-methyl-1H-pyrazol-4-yl)phenyl)-4-oxo-4H-chromen-8-yl)ethyl)amino)benzoic acid [Example 95A] | – | – | 12 | 1260 | – | – | IC50 [1]: 0.09 µM; Cmax [2, 5]: 102 ng/mL; MRT [2, 5]: 7.64 h; IC50 [3]: > 10 µM
